Experimental data: PubChem BioAssay (NCI)
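96-well plates; 48 h exposure; 5 concentrations. Endpoints by linear interpolation between flanking doses. Not reached: highest tested concentration assigned. GI50 is the concentration that inhibits growth by half. At the TGI there is no net growth.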

How the values were obtained:
Test in all cases: NCI-60 cell line screen, 48 h
SK-MEL-28 melanoma = system: SK-MEL-28 melanoma
SR leukemia = system: SR leukemia
SK-MEL-2 melanoma = system: SK-MEL-2 melanoma
A549 NSCLC = system: A549 NSCLC
OVCAR-4 ovarian = system: OVCAR-4 ovarian
SNB-75 CNS = system: SNB-75 CNS
HL-60(TB) leukemia = system: HL-60(TB) leukemia
KM12 colon = system: KM12 colon
CAKI-1 renal = system: CAKI-1 renal
A498 renal = system: A498 renal

Row | Compound | TGI (SK-MEL-28 melanoma) [µM] | TGI (SR leukemia) [µM] | TGI (SK-MEL-2 melanoma) [µM] | TGI (A549 NSCLC) [µM] | TGI (OVCAR-4 ovarian) [µM] | TGI (SNB-75 CNS) [µM] | TGI (HL-60(TB) leukemia) [µM] | TGI (KM12 colon) [µM] | GI50 (SK-MEL-28 melanoma) [µM] | GI50 (CAKI-1 renal) [µM] | TGI (CAKI-1 renal) [µM] | GI50 (SK-MEL-2 melanoma) [µM] | GI50 (A549 NSCLC) [µM] | GI50 (OVCAR-4 ovarian) [µM] | GI50 (SNB-75 CNS) [µM] | GI50 (A498 renal) [µM] | TGI (A498 renal) [µM] | GI50 (KM12 colon) [µM] | GI50 (SR leukemia) [µM] | GI50 (HL-60(TB) leukemia) [µM]
1 | CC[P+](C)(C)CC | > 100 | > 100 | > 100 | > 100 | > 100 | > 100 | > 100 | > 100 |  |  |  |  |  |  |  |  |  |  |  | 
2 | O=C(N/N=C/c1coc2ccc(Cl)cc2c1=O)c1cc(O)c(O)c(O)c1 | > 100 |  | > 100 | > 100 | > 100 | > 100 |  | 69.1 | 65.7 | 25 | 70 | > 100 | 31.4 | 98.4 | 72 | 13.6 | 42.3 | 21.5 |  | 
3 | O=C1c2ccccc2-n2c1nc1ccc([N+](=O)[O-])cc1c2=O | > 100 | > 100 |  | > 100 |  |  | 43.5 | > 100 |  |  | 99.7 |  |  |  |  |  | 35.5 |  |  | 
4 | CCOC(=O)c1c(C)n(Cc2ccc(Cl)cc2Cl)c2c1cc(O)c1[nH]c(Cc3ccccc3)nc12 | 27.7 | 2.22 | 37.2 | 14 | 16.7 | 30.8 | 5.38 | 4.62 | 13 | 8.29 | 26.8 | 9.39 | 2.86 | 4.15 | 5.89 |  |  | 2.05 | 0.612 | 2.27
5 | CCCCCCCCCCCCNCCCc1ccccc1 | 3.23 | 3.56 |  | 3.35 | 2.98 | 2.89 | 3.73 | 3.13 | 1.72 | 1.79 | 3.44 |  | 1.78 | 1.57 | 1.43 | 2.3 | 6.69 | 1.75 | 1.2 | 1.89
6 | C[C@H]1CCC/C=C/[C@@H]2C[C@H](O)C[C@H]2[C@H](O)C(O)C(O)C(=O)O1 (stereo partly drawn) | > 100 | 3.66 | > 23.9 | > 100 |  |  | 2.31 | 1.38 | 1.25 | 3.78 | 46 | 3.81 | 4.54 |  | 0.578 | 2.29 | 7.96 | 0.396 | 1.28 | 0.251
7 | O=S(=O)([O-])c1ccc(C=Nc2ccccc2)c([O-])c1.O=S(=O)([O-])c1ccc(C=Nc2ccccc2)c([O-])c1.[Co+2] | > 100 | > 100 | > 100 | > 100 |  | > 100 | > 100 | > 100 | > 100 |  |  | 77.8 | 55.2 |  | > 100 |  |  | 65.4 | 24.9 | 2.7
8 | O=C1OC(=O)c2c1cc1cc3c(cc1c2-c1ccc2c(c1)OCO2)OCO3 | > 100 |  | > 100 | > 100 | > 100 | > 100 | > 100 | > 100 |  |  | > 100 |  |  |  |  |  | > 100 |  |  | 
9 | CN(C)Cc1nsc(N(C)C)n1 | > 100 |  | > 100 | > 100 | > 100 | > 100 |  | > 100 |  |  | > 100 |  |  |  |  |  | > 100 |  |  | 
10 | COc1ccc(C)cc1-c1ccc(-c2cc(C)ccc2OC)o1 | > 100 |  | > 100 | > 100 | > 100 | > 100 | > 100 | > 100 |  |  | > 100 |  |  |  |  |  | > 100 |  |  | 
11 | COc1ccc(C2=NC(CO)[C@H](c3ccccc3)O2)cc1OC (stereo partly drawn) |  |  | > 100 | > 100 | > 100 | > 100 | > 100 | > 100 |  |  | > 100 |  |  |  |  |  | > 100 |  |  | 
12 | COC(=O)C(C(=O)C(=O)Nc1nc2ccc(OC)cc2s1)c1cnc2ccccc2n1 (stereo not drawn) | > 100 |  |  | > 100 | > 100 | > 100 |  | > 100 |  |  | > 100 |  |  |  |  |  | > 100 |  |  | 
13 | CC(C)(C)c1ccc(OCCCCCCCN2CCNCC2)cc1 |  |  | 3.47 | 3.6 | 3.22 | 3.74 | 3.3 | 3.6 |  | 1.46 | 2.81 | 1.74 | 1.72 | 1.6 | 1.57 |  |  | 1.85 |  | 1.45
14 | CCOC(=O)c1nc2sc(Cl)cn2c1/C=N/N=C(N)N | 51 |  | > 87.2 | > 58.3 | > 100 | 68.8 | > 100 | 36.6 | 18.2 | 27 | > 76.9 | 36.5 | 26.9 | 30.3 | 27.9 |  |  | 18.3 |  | 26.1
15 | O=S(=O)(c1ccccc1)C1(C2(S(=O)(=O)c3ccccc3)CCN=N2)CCN=N1 (stereo not drawn) | > 100 | > 100 | > 100 | > 100 | > 100 | > 100 | > 100 | > 100 |  |  | > 100 |  |  |  |  |  |  |  |  | 
16 | NNC(=O)C(=O)N/N=C1\CCCC1C(=O)CCC(=O)Nc1cccc(Cl)c1 (stereo not drawn) | > 100 |  | > 100 | > 100 | > 100 | > 100 | > 100 | > 100 |  |  |  |  |  |  |  |  |  |  |  | 
17 | O=C(/C=C/c1cccc(Cl)c1)c1ccccc1 | 30.2 | 31.5 |  | 29.3 | 26.8 | 28.6 | 6.58 | 4.86 | 15.9 | 2.73 | 11.5 |  | 14.9 | 13.6 | 15.1 | 10.2 | 21.9 | 1.96 | 2.6 | 2.96
18 | Cc1c(C(=O)Nc2ccc(Oc3ccnc4cc(OCC(C)(C)O)ccc34)c(F)c2)c(=O)n(-c2ccccc2)n1C |  | > 100 |  |  |  | > 100 |  | > 100 |  |  |  |  |  |  | 2.93 |  |  | 0.226 | 3.66 | 
19 | O=C1CC[C@@H]2[C@H]3CCC(=O)c4c3c(c3cccc(O)c3c4O)O[C@@]23C(=O)c2cccc(O)c2C(O)=C13 | > 100 | > 100 | > 100 | > 100 |  | > 100 | > 100 | > 100 | > 100 |  |  | 74.4 | > 100 |  | > 100 |  |  | > 100 | > 100 | > 100
